Experiment [1] deals with A375 cells (parental). The experiment in a line: Dose-response curves and IC50, PrestoBlue cell viability, 72 h. Format: cell-based, human. The following applies: for IC50: read-out: Half-maximal inhibitory concentration value (IC50), Mean.
Experiment [2] relates to A375-XP cells (Vemurafenib-resistant). The experiment is described as above. The following applies: n.e. = did not suppress growth below 50% in the tested concentration range; for IC50: read-out: Half-maximal inhibitory concentration value (IC50), Mean. Format: cell-based, human.
Experiment [3] has as its system A375-GP cells (Dabrafenib-resistant). Described as above. The following applies: n.e. = did not suppress growth below 50% in the tested concentration range; for IC50: read-out: Half-maximal inhibitory concentration value (IC50), Mean. Format: cell-based, human.
The test system of experiment [4] is IGR37 cells (parental). The description is as above. The following applies: read-out: Half-maximal inhibitory concentration (IC50).
Protocol: (§1) All inhibitors used in this study were purchased from Selleck Chemicals (Houston, USA). They were dissolved in DMSO to a stock concentration of 10 mM according to the manufacturer’s instructions and stored at − 80 °C. […] Cell viability was measured with the PrestoBlue Cell Viability Reagent (ThermoFisher Scientific) on a CLARIOstar Monochromator microplate reader (BMG Labtech). Using the GraphPad Prism v5.04 software, the half-maximal inhibitor concentration values (IC50) were determined from the curve using the nonlinear log (inhibitor) vs response-variable slope (four parameters) equation. […] The IC50’s were determined for 3 biological replicates and are listed with their standard deviations.
(§2) Values represent the mean of at least three biological replicates; one representative curve of at least 3 biological replicates is depicted. _XP: cells resistant to Vemurafenib (red), _GP: cells resistant to Dabrafenib (green).
Experiment [5] deals with IGR37-XP cells (Vemurafenib-resistant). Described as above. The following applies: read-out: Half-maximal inhibitory concentration (IC50).
Protocol: as §1, §2
Experiment [6] has as its system IGR37-GP cells (Dabrafenib-resistant). Described as above. The following applies: read-out: Half-maximal inhibitory concentration (IC50).
Protocol: as §1, §2
Experiment [7] concerns 501Mel cells (parental). The experiment is described as above. The following applies: read-out: Half-maximal inhibitory concentration (IC50).
Protocol: as §1, §2
Experiment [8] deals with 501Mel-XP cells (Vemurafenib-resistant). The description is as above. The following applies: read-out: Half-maximal inhibitory concentration (IC50).
Protocol: as §1, §2
The subject of experiment [9] is 501Mel-GP cells (Dabrafenib-resistant). The description is as above. The following applies: read-out: Half-maximal inhibitory concentration (IC50).
Protocol: as §1
Experiment [10] deals with 501Mel cells (parental). The experiment in a line: Kinase inhibitor library screening, PrestoBlue cell viability, 1 or 10 μM, 72 h. The following applies: 501Mel Parental, 72 h. A digest of the protocol:
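PrestoBlue viability readout after 72 h exposure to each inhibitor at 1 or 10 μM, reported relative to untreated cells as % viability. Lines tested: sensitive parental plus derivatives resistant to Vemurafenib (XP) or Dabrafenib (GP), each run at least in duplicate.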

Experiment [11] has as its system 501Mel-GP cells (Dabrafenib-resistant). The description is as above. The following applies: 501Mel GP, 72 h.
Experiment [12] has as its system 501Mel-XP cells (Vemurafenib-resistant). The description is as above. The following applies: 501Mel XP, 72 h.
Experiment [13] has as its system A375 cells (parental). The experiment is described as above. The following applies: A375 Parental, 72 h.
In experiment [14] the test system is A375-GP cells (Dabrafenib-resistant). The experiment is described as above. The following applies: A375 GP, 72 h.
In experiment [15] the test system is A375-XP cells (Vemurafenib-resistant). Described as above. The following applies: A375 XP, 72 h.
Experiment [16] concerns IGR37 cells (parental). The description is as above. The following applies: IGR37 Parental, 72 h.
The test system of experiment [17] is IGR37-GP cells (Dabrafenib-resistant). The experiment is described as above. The following applies: IGR37 GP, 72 h.
In experiment [18] the test system is IGR37-XP cells (Vemurafenib-resistant). The experiment is described as above. The following applies: IGR37 XP, 72 h.
The next experiment deals with A375 cells. The experiment in a line: Synergy determination with the Chou-Talalay method (CompuSyn), cell viability 72 h. The format is cell-based, human. The following applies: 72 h cell viability, Chou-Talalay / Synergyfinder. The protocol:
The Chou-Talalay method to determine possible synergistic effects of selected kinase inhibitor combinations was used as described in [19]. […] Cells were treated with either single inhibitors or combinations thereof at indicated amounts in technical triplicates. The amounts were pre-determined from each inhibitor’s IC50 value and inhibitors were assayed in a defined dilution series and at constant ratio when combined. […] Combination Index (CI) values showing either synergy (< 1) or antagonism (> 1) were calculated with the CompuSyn software (ComboSyn, Inc).

Setting [19] is: Homo sapiens, A-375, n.e. = did not suppress growth below 50% in the tested concentration range.
Setting [20] is: n.e. = did not suppress growth below 50% in the tested concentration range.

Each structure is given as a SMILES string. Like-named read-outs stand apart in the source and are kept apart here.

Turning to `NC1(c2ccc(-c3nc4ccn5c(=O)[nH]nc5c4cc3-c3ccccc3)cc2)CCC1` [MK-2206], the IC50 stood at 7.8 µM in the experiment on A375 cells (parental) [1] (setting [19]); 3.38 µM in experiment [2] (Homo sapiens); 6.43 µM in experiment [3] (Homo sapiens); 4.75 µM in the experiment with IGR37 cells (parental) [4] (Homo sapiens, IGR-37, 72 h); 5.08 µM in experiment [5] (Homo sapiens, 72 h); 4.73 µM in experiment [6] (Homo sapiens, 72 h). Further, the IC50 is 4.55 µM in the experiment with 501Mel cells (parental) [7] (Homo sapiens, 72 h); 2220 nM in experiment [8] (Homo sapiens, 72 h); 4.36 µM in experiment [9] (Homo sapiens, 72 h).

Take `C[C@@H](Oc1cc(-c2cnn(C3CCNCC3)c2)cnc1N)c1c(Cl)ccc(F)c1Cl` [Crizotinib]: the IC50 in the experiment with A375 cells (parental) [1] (setting [19]) stood at 5.55 µM; in experiment [2] (Homo sapiens), 5.14 µM; in [3] (Homo sapiens) it was 5.09 µM; in the experiment on IGR37 cells (parental) [4] (Homo sapiens, IGR-37, 72 h), 6.89 µM; in experiment [5] (Homo sapiens, 72 h), 5.94 µM; in experiment [6] (Homo sapiens, 72 h), 6.75 µM. The IC50 in the experiment with 501Mel cells (parental) [7] (Homo sapiens, 72 h) is 6.52 µM; in [8] (Homo sapiens, 72 h), 1350 nM; in experiment [9] (Homo sapiens, 72 h), 3.28 µM.

Turning to `O=C(NC1CCNCC1)c1[nH]ncc1NC(=O)c1c(Cl)cccc1Cl` [AT7519, reference compound], the “cell viability (kinase inhibitor library screening)” value was determined as 82.3% with 501Mel cells (parental) [10] (1μΜ); 1.4% with 501Mel cells (parental) [10] (10μΜ); 96.2% in experiment [11] (1μΜ); 0.428% in [11] (10μΜ); 73.2% in experiment [12] (1μΜ); 0.0524% in experiment [12] (10μΜ). In addition, the “cell viability (kinase inhibitor library screening)” value in the experiment on A375 cells (parental) [13] (10μΜ) worked out at 8.2%; in the experiment on A375 cells (parental) [13] (1μΜ), 30.7%; in experiment [14] (1μΜ) it was 17.7%; in experiment [14] (10μΜ) it was 4.8%; in experiment [15] (1μΜ) it was 37.2%; in experiment [15] (10μΜ) it was 7.6%. For the same molecule, the “cell viability (kinase inhibitor library screening)” value came out at 79.7% with IGR37 cells (parental) [16] (1μΜ); 2.2% in the experiment with IGR37 cells (parental) [16] (10μΜ); 35.9% in experiment [17] (1μΜ); 3.9% in experiment [17] (10μΜ); 10.8% in experiment [18] (1μΜ); 2.4% in experiment [18] (10μΜ). Besides, the values for the IC50 (with A375 cells (parental) [1] (setting [19]); in [2] (Homo sapiens); in experiment [3] (Homo sapiens)) were 0.544 µM, 0.631 µM and 0.645 µM, respectively. Besides, the “synergistic effects with the BRAF inhibitors Vemurafenib and/or Dabrafenib (in words)” value in the experiment on A375 cells was “did not act synergistically”.

On to `CCS(=O)(=O)Nc1ccc2c(c1)/C(=C(/Nc1ccc(CN3CCCCC3)cc1)c1ccccc1)C(=O)N2` [Hesperadin, reference compound], for which the “cell viability (kinase inhibitor library screening)” value is 45.1% in the experiment on 501Mel cells (parental) [10] (1μΜ); 33.5% in the experiment on 501Mel cells (parental) [10] (10μΜ); 81.7% in experiment [11] (1μΜ); 46.9% in [11] (10μΜ); 70.7% in experiment [12] (1μΜ); 3.6% in experiment [12] (10μΜ). The “cell viability (kinase inhibitor library screening)” value in the experiment on A375 cells (parental) [13] (10μΜ) is recorded as 1.9%; with A375 cells (parental) [13] (1μΜ), 7.5%; in experiment [14] (1μΜ), 13.0%; in experiment [14] (10μΜ), 9.9%; in experiment [15] (1μΜ), 13.3%; in experiment [15] (10μΜ) it was 3.7%. For the same molecule, the “cell viability (kinase inhibitor library screening)” value in the experiment with IGR37 cells (parental) [16] (1μΜ) was 56.8%; with IGR37 cells (parental) [16] (10μΜ), 48.6%; in experiment [17] (1μΜ), 52.6%; in experiment [17] (10μΜ), 12.7%; in experiment [18] (1μΜ), 35.1%; in experiment [18] (10μΜ), 2.0%. The IC50 with IGR37 cells (parental) [4] (Homo sapiens, IGR-37, 72 h) came to 0.339 µM; in [5] (Homo sapiens, 72 h), 0.77 µM; in experiment [6] (Homo sapiens, 72 h), 1.03 µM.

For `Nc1cc(C(F)(F)F)c(-c2cc(N3CCOCC3)nc(N3CCOCC3)n2)cn1` [BKM120], the IC50 came to 0.951 µM in the experiment with A375 cells (parental) [1] (setting [20]); 1 µM in experiment [2]; 0.788 µM in [3]; 0.916 µM in the experiment with IGR37 cells (parental) [4] (IGR37 parental, 72 h cell viability); 1.16 µM in [5] (IGR37-XP (Vemurafenib-resistant), 72 h cell viability); 1.52 µM in experiment [6] (IGR37-GP (Dabrafenib-resistant), 72 h cell viability). Moreover, the IC50 in the experiment on 501Mel cells (parental) [7] (501Mel parental, 72 h cell viability) is 1.17 µM; in experiment [8] (501Mel-XP (Vemurafenib-resistant), 72 h cell viability), 818 nM; in experiment [9] (501Mel-GP (Dabrafenib-resistant), 72 h cell viability), 0.919 µM.

With `CNC(=O)c1cc(Oc2ccc(NC(=O)Nc3ccc(Cl)c(C(F)(F)F)c3)cc2)ccn1` [Sorafenib], the IC50 was 5.11 µM with A375 cells (parental) [1] (setting [19]); 4.54 µM in experiment [2] (Homo sapiens); 2.5 µM in experiment [3] (Homo sapiens); 7.31 µM in the experiment with IGR37 cells (parental) [4] (Homo sapiens, IGR-37, 72 h); 10 µM in experiment [5] (Homo sapiens, 72 h); 9.52 µM in experiment [6] (Homo sapiens, 72 h). Further, the IC50 with 501Mel cells (parental) [7] (Homo sapiens, 72 h) worked out at 7.04 µM; in experiment [8] (Homo sapiens, 72 h) it was 5430 nM; in [9] (Homo sapiens, 72 h) it was 6.94 µM.

Regarding `O=C(O)c1ccc2c(c1)nc(Nc1cccc(Cl)c1)c1ccncc12` [cx-4945], the IC50 was 5.62 µM in the experiment on A375 cells (parental) [1] (setting [19]); 5.21 µM in [2] (Homo sapiens); 5.34 µM in [3] (Homo sapiens); 6.66 µM with IGR37 cells (parental) [4] (Homo sapiens, IGR-37, 72 h); 6.1 µM in experiment [5] (Homo sapiens, 72 h); 9.09 µM in [6] (Homo sapiens, 72 h). For the same molecule, the IC50 stood at 7.17 µM in the experiment on 501Mel cells (parental) [7] (Homo sapiens, 72 h); 4650 nM in [8] (Homo sapiens, 72 h); 4.94 µM in experiment [9] (Homo sapiens, 72 h).

On to `CO[C@H]1C[C@@H]2CC[C@@H](C)[C@@](O)(O2)C(=O)C(=O)N2CCCC[C@H]2C(=O)O[C@H]([C@H](C)C[C@@H]2CC[C@@H](OC(=O)C(C)(CO)CO)[C@H](OC)C2)CC(=O)[C@H](C)/C=C(\C)[C@@H](O)[C@@H](OC)C(=O)[C@H](C)C[C@H](C)/C=C/C=C/C=C/1C` [Temsirolimus], for which the “Half-maximal inhibitory concentration value (IC50), Mean” value (with A375 cells (parental) [1] (setting [20]); in experiment [2]; in experiment [3]) was “n.e” each time. The IC50 turned out to be 6.93 µM in experiment [5] (Homo sapiens, 72 h) and 9.45 µM in experiment [6] (Homo sapiens, 72 h).

For `CCc1cnn2c(NCc3ccc[n+]([O-])c3)cc(N3CCCC[C@H]3CCO)nc12` [Dinaciclib], the IC50 with IGR37 cells (parental) [4] (Homo sapiens, IGR-37, 72 h) was 0.0082 µM; in experiment [5] (Homo sapiens, 72 h), 0.0102 µM; in [6] (Homo sapiens, 72 h), 0.0136 µM; in the experiment on 501Mel cells (parental) [7] (Homo sapiens, 72 h) it was 0.012 µM; in experiment [8] (Homo sapiens, 72 h), 11 nM; in experiment [9] (Homo sapiens, 72 h), 0.011 µM.

The record behind these values is publication PMC6364417, “Kinase inhibitor library screening identifies synergistic drug combinations effective in sensitive and resistant melanoma cells” (Journal of Experimental & Clinical Cancer Research : CR, 2019).
